Measured values as given in the supplement of paper PMC9265050, “Inhibition of RNA Binding in SND1 Increases the Levels of miR-1-3p and Sensitizes Cancer Cells to Navitoclax” (Cancers, 2022).

Tested on: SW480
Assay: drug sensitivity score (DSS, integrated dose-response area); higher = more sensitive (stronger viability reduction); extreme values may be limits of the assay
Outline: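 The drug sensitivity score is the integrated area under a fitted non-linear dose–response model. It was derived from SW480 cells with doxycycline-inducible control or SND1-targeting shRNA, induced with 0.1 µg/mL doxycycline for 7 days and plated at 1000 cells per well on 384-well plates of 525 commercially available small-molecule inhibitors at five concentrations. CellTiter-Glo measured viability after 72 h.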

[1] = shRNA: SND1 shRNA1 (SND1 silenced)
[2] = shRNA: SND1 shRNA2 (SND1 silenced)
[3] = shRNA: control shRNA (non-targeting)

Compound | drug sensitivity score [1] [DSS] | drug sensitivity score [2] [DSS] | drug sensitivity score [3] [DSS]
Nc1cc(C(F)(F)F)c(-c2cc(N3CCOCC3)nc(N3CCOCC3)n2)cn1 [Buparlisib] | 8.9 | 7.7 | 5.9
CS(=O)(=O)OCCCCOS(C)(=O)=O [Busulfan] | 0 | 1.4 | 1.5
O=C(O)CCCCC(CCSCc1ccccc1)SCc1ccccc1 (configuration not stated) [CPI-613] | 0 | – | 0
C#Cc1cccc(Nc2ncnc3cc(OC)c(OCCCCCCC(=O)NO)cc23)c1 [CUDC-101] | 11.3 | 12.6 | 10.7
CN(C)c1cc2c(cc1Sc1nc3c(N)nccc3n1CCNCC(C)(C)C)OCO2 [CUDC-305] | 13.3 | 13.1 | 14.9
COc1ccc(-c2nc(N3CCOCC3)c3sc(CN(C)c4ncc(C(=O)NO)cn4)cc3n2)cn1 [CUDC-907] | 40.7 | 33.9 | 34.2
Cc1nc(N)sc1-c1ccnc(Nc2ccc(N3CCOCC3)cc2)n1 [CYC-116] | 9.3 | – | 8.8
CO[C@H]1C(=O)[C@]2(C)[C@@H](OC)C[C@H]3OC[C@@]3(OC(C)=O)[C@H]2[C@H](OC(=O)c2ccccc2)[C@]2(O)C[C@H](OC(=O)[C@H](O)[C@@H](NC(=O)OC(C)(C)C)c3ccccc3)C(C)=C1C2(C)C [Cabazitaxel] | 18.7 | 14.6 | 20.3
COc1cc2nccc(Oc3ccc(NC(=O)C4(C(=O)Nc5ccc(F)cc5)CC4)cc3)c2cc1OC [Cabozantinib] | 0 | 2.7 | 0.6
CC[C@@]1(O)C(=O)OCc2c1cc1n(c2=O)Cc2cc3ccccc3nc2-1 [Camptothecin] | 18.4 | 10.3 | 12.6
C=CC(=O)Nc1cc2c(Nc3ccc(F)c(Cl)c3)ncnc2cc1OCCCN1CCOCC1 [Canertinib] | 7 | 6.2 | 8.6
CCCCCOC(=O)Nc1nc(=O)n([C@@H]2O[C@H](C)[C@@H](O)[C@H]2O)cc1F [Capecitabine] | 0 | 0 | 0
O=C(O)C1(C(=O)O)CCC1.[NH2-].[NH2-].[Pt+2] [Carboplatin] | 1 | – | 0.5
CC(C)C[C@H](NC(=O)[C@H](CCc1ccccc1)NC(=O)CN1CCOCC1)C(=O)N[C@@H](Cc1ccccc1)C(=O)N[C@@H](CC(C)C)C(=O)[C@@]1(C)CO1 [Carfilzomib] | 22.9 | 24.5 | 24.6
O=NN(CCCl)C(=O)NCCCl [Carmustine] | 0 | 0 | 0.4
COc1cc2c(Oc3ccc4[nH]c(C)cc4c3F)ncnc2cc1OCCCN1CCCC1 [Cediranib] | 6.1 | 5.1 | 4.3
Cc1ccc(-c2cc(C(F)(F)F)nn2-c2ccc(S(N)(=O)=O)cc2)cc1 [Celecoxib] | 0 | 0 | 0
CCS(=O)(=O)N1CCN(c2ccc(Nc3ncc(C(N)=O)c(NC4CC4)n3)cc2)CC1 [Cerdulatinib] | 7.8 | 6.6 | 9.3
Cc1cc(Nc2ncc(Cl)c(Nc3ccccc3S(=O)(=O)C(C)C)n2)c(OC(C)C)cc1C1CCNCC1 [Ceritinib] | 2.1 | 0.8 | 0.2
O=C(O)CCCc1ccc(N(CCCl)CCCl)cc1 [Chlorambucil] | 0 | 0 | 0
CCN(CC)CCCC(C)Nc1ccnc2cc(Cl)ccc12 (configuration not stated) [Chloroquine] | 14.9 | – | 11.6
CC(C)[C@H]1C(=O)N[C@@H](CCCNC(=N)N)C(=O)NCC(=O)N[C@@H](CC(=O)O)C(=O)N[C@H](Cc2ccccc2)C(=O)N1C [Cilengitide] | 0 | 0 | 0
N.N.[Cl][Pt][Cl] [Cisplatin] | 8.1 | – | 9.2
Nc1nc(Cl)nc2c1ncn2[C@H]1C[C@H](O)[C@@H](CO)O1 [Cladribine] | 2.4 | 0 | 0.5
Nc1nc(Cl)nc2c1ncn2[C@@H]1O[C@H](CO)[C@@H](O)[C@@H]1F [Clofarabine] | 8.4 | 0.7 | 6.5

Compound | drug sensitivity score [1] [DSS] | drug sensitivity score [2] [DSS] | drug sensitivity score [3] [DSS]
CCN(CC)CCOc1ccc(C(=C(Cl)c2ccccc2)c2ccccc2)cc1 [Clomifene] | 7 | 5.3 | 6.1
O=C(c1ccc(F)c(F)c1Nc1ccc(I)cc1F)N1CC(O)([C@@H]2CCCCN2)C1 [Cobimetinib] | 13.3 | – | 7.7
COc1c(OCCCN2CCOCC2)ccc2c1N=C(NC(=O)c1cnc(N)nc1)N1CCN=C21 [Copanlisib] | 4 | 0.3 | 0
CC1(COc2ccc3c(c2)ncn3-c2ccc3cccc(N4CCC(N)CC4)c3n2)COC1 [Crenolanib] | 11.9 | 11.7 | 13
C[C@@H](Oc1cc(-c2cnn(C3CCNCC3)c2)cnc1N)c1c(Cl)ccc(F)c1Cl [Crizotinib] | 0.6 | 0.2 | 2.9
O=P1(N(CCCl)CCCl)NCCCO1 (configuration not stated) [Cyclophosphamide] | 0 | 0 | 0
Nc1ccn([C@@H]2O[C@H](CO)[C@@H](O)[C@@H]2O)c(=O)n1 [Cytarabine] | 5.4 | 0 | 3.6
CC(C)(C)c1nc(-c2cccc(NS(=O)(=O)c3c(F)cccc3F)c2F)c(-c2ccnc(N)n2)s1 [Dabrafenib] | 0 | – | 0
CN(C)/N=N/c1[nH]cnc1C(N)=O [Dacarbazine] | 0 | 1.9 | 0.7
COc1cc2ncnc(Nc3ccc(F)c(Cl)c3)c2cc1NC(=O)/C=C/CN1CCCCC1 [Dacomitinib] | 3.3 | 7 | 10.2
Cc1c2oc3c(C)ccc(C(=O)N[C@@H]4C(=O)N[C@H](C(C)C)C(=O)N5CCC[C@H]5C(=O)N(C)CC(=O)N(C)[C@@H](C(C)C)C(=O)O[C@@H]4C)c3nc-2c(C(=O)N[C@@H]2C(=O)N[C@H](C(C)C)C(=O)N3CCC[C@H]3C(=O)N(C)CC(=O)N(C)[C@@H](C(C)C)C(=O)O[C@@H]2C)c(N)c1=O [Dactinomycin] | 24.3 | 24 | 26.8
Cn1c(=O)n(-c2ccc(C(C)(C)C#N)cc2)c2c3cc(-c4cnc5ccccc5c4)ccc3ncc21 [Dactolisib] | 17.8 | 17.8 | 11.3
CO[C@@H](C(=O)N1Cc2[nH]nc(NC(=O)c3ccc(N4CCN(C)CC4)cc3)c2C1)c1ccccc1 [Danusertib] | 6.5 | 4.7 | 4.9
O=C(/C=C/c1cccnc1)NCCCCC1CCN(C(=O)c2ccccc2)CC1 [Daporinad] | 28.1 | – | 27.8
CCN(CC)CCN(Cc1ccc(-c2ccc(C(F)(F)F)cc2)cc1)C(=O)Cn1c(SCc2ccc(F)cc2)nc(=O)c2c1CCC2 [Darapladib] | 0.1 | 0 | 5.8
Cc1nc(Nc2ncc(C(=O)Nc3c(C)cccc3Cl)s2)cc(N2CCN(CCO)CC2)n1 [Dasatinib] | 0.5 | 6.2 | 2.1
COc1cccc2c1C(=O)c1c(O)c3c(c(O)c1C2=O)C[C@@](O)(C(C)=O)C[C@@H]3O[C@H]1C[C@H](N)[C@H](O)[C@H](C)O1 [Daunorubicin] | 9.5 | 7.3 | 10
Nc1ncn([C@H]2C[C@H](O)[C@@H](CO)O2)c(=O)n1 [Decitabine] | 11 | 8.2 | 5.5
CC(=O)N(O)CCCCCNC(=O)CCC(=O)N(O)CCCCCNC(=O)CCC(=O)N(O)CCCCCN [Deferoxamine] | 8 | – | 6.1
C[C@@H]1C[C@H]2[C@@H]3CCC4=CC(=O)C=C[C@]4(C)[C@@]3(F)[C@@H](O)C[C@]2(C)[C@@]1(O)C(=O)CO [Dexamethasone] | 0 | 1.8 | 1.3
CCc1cnn2c(NCc3ccc[n+]([O-])c3)cc(N3CCCC[C@H]3CCO)nc12 [Dinaciclib] | 18.1 | 15.8 | 20.1
CCN(CC)C(=S)SSC(=S)N(CC)CC [Disulfiram] | 29.7 | – | 28.6
CC(=O)O[C@@]12CO[C@@H]1C[C@H](O)[C@@]1(C)C(=O)[C@H](O)C3=C(C)[C@@H](OC(=O)[C@H](O)[C@@H](NC(=O)OC(C)(C)C)c4ccccc4)C[C@@](O)([C@@H](OC(=O)c4ccccc4)[C@H]21)C3(C)C [Docetaxel] | 18.1 | 16.5 | 19
Cc1ccc(-n2nc(C(C)(C)C)cc2NC(=O)Nc2ccc(OCCN3CCOCC3)c3ccccc23)cc1 [Doramapimod] | 4.1 | 5.5 | 6
